Data as given in the NIST ThermoML archive (doi:10.1021/je201310d).
Numbers after ± are expanded uncertainties.

Test: activity coefficient (dimensionless); of the first substance listed, at infinite dilution; xn = mol fraction of the nth substance listed
Conditions: 101 kPa, Liquid, Chromatography, x1 = 0

Row | Compound | activity coefficient (313.15 K) | activity coefficient (323.15 K) | activity coefficient (333.15 K) | activity coefficient (343.15 K) | activity coefficient (353.15 K) | activity coefficient (363.15 K)
1 | CCCCCC [hexane] + CCCCOP(=O)([O-])OCCCC.CCCCn1cc[n+](C)c1 | 4.73 ± 0.28 | 4.63 ± 0.28 | 4.51 ± 0.27 | 4.45 ± 0.26 | 4.32 ± 0.26 | 4.24 ± 0.25
2 | C1=CCCCC1 [cyclohexene] + CCCCOP(=O)([O-])OCCCC.CCCCn1cc[n+](C)c1 | 2.2 ± 0.13 | 2.15 ± 0.13 | 2.11 ± 0.13 | 2.05 ± 0.12 | 2.02 ± 0.12 | 1.96 ± 0.12
3 | CCCCCCCC [octane] + CCCCOP(=O)([O-])OCCCC.CCCCn1cc[n+](C)c1 | 6.54 ± 0.39 | 6.43 ± 0.38 | 6.36 ± 0.38 | 6.28 ± 0.37 | 6.21 ± 0.37 | 6.15 ± 0.37
4 | CC1CCCCC1 [methylcyclohexane] + CCCCOP(=O)([O-])OCCCC.CCCCn1cc[n+](C)c1 | 3.7 ± 0.22 | 3.61 ± 0.21 | 3.54 ± 0.21 | 3.48 ± 0.21 | 3.41 ± 0.2 | 3.35 ± 0.2
5 | C1CCCCC1 [cyclohexane] + CCCCOP(=O)([O-])OCCCC.CCCCn1cc[n+](C)c1 | 3.09 ± 0.18 | 2.99 ± 0.18 | 2.84 ± 0.17 | 2.76 ± 0.16 | 2.68 ± 0.16 | 2.59 ± 0.15
6 | CCCCCCCCC [nonane] + CCCCOP(=O)([O-])OCCCC.CCCCn1cc[n+](C)c1 | 7.69 ± 0.46 | 7.47 ± 0.45 | 7.31 ± 0.44 | 7.13 ± 0.42 | 7.02 ± 0.42 | 6.88 ± 0.41
7 | Cc1cccc(C)c1 [1,3-dimethylbenzene] + CCCCOP(=O)([O-])OCCCC.CCCCn1cc[n+](C)c1 | 1.99 ± 0.12 | 1.95 ± 0.12 | 1.92 ± 0.11 | 1.88 ± 0.11 | 1.85 ± 0.11 | 1.83 ± 0.11
8 | c1ccccc1 [benzene] + CCCCOP(=O)([O-])OCCCC.CCCCn1cc[n+](C)c1 | 1.03 ± 0.06 | 0.97 ± 0.05 | 0.93 ± 0.05 | 0.9 ± 0.05 | 0.88 ± 0.05 | 0.85 ± 0.05
9 | Cc1ccc(C)cc1 [1,4-dimethylbenzene] + CCCCOP(=O)([O-])OCCCC.CCCCn1cc[n+](C)c1 | 1.91 ± 0.11 | 1.86 ± 0.11 | 1.82 ± 0.11 | 1.78 ± 0.1 | 1.75 ± 0.1 | 1.72 ± 0.1
10 | C=Cc1ccccc1 [styrene] + CCCCOP(=O)([O-])OCCCC.CCCCn1cc[n+](C)c1 | 1.19 ± 0.07 | 1.15 ± 0.06 | 1.09 ± 0.06 | 1.07 ± 0.06 | 1.03 ± 0.06 | 0.98 ± 0.05
11 | CC(C)CC(C)(C)C [2,2,4-trimethylpentane] + CCCCOP(=O)([O-])OCCCC.CCCCn1cc[n+](C)c1 | 6.2 ± 0.37 | 6.12 ± 0.36 | 6.06 ± 0.36 | 6.01 ± 0.36 | 5.94 ± 0.35 | 5.88 ± 0.35
12 | Cc1ccccc1 [toluene] + CCCCOP(=O)([O-])OCCCC.CCCCn1cc[n+](C)c1 | 1.39 ± 0.08 | 1.35 ± 0.08 | 1.32 ± 0.07 | 1.3 ± 0.07 | 1.29 ± 0.07 | 1.27 ± 0.07
13 | CCCCCCCCCC [decane] + CCCCOP(=O)([O-])OCCCC.CCCCn1cc[n+](C)c1 | 10 ± 0.6 | 9.65 ± 0.58 | 9.16 ± 0.55 | 8.78 ± 0.52 | 8.54 ± 0.51 | 8.25 ± 0.49
14 | CCCCCCC [heptane] + CCCCOP(=O)([O-])OCCCC.CCCCn1cc[n+](C)c1 | 5.5 ± 0.33 | 5.38 ± 0.32 | 5.29 ± 0.31 | 5.21 ± 0.31 | 5.12 ± 0.3 | 5.05 ± 0.3
15 | Cc1ccccc1C [1,2-dimethylbenzene] + CCCCOP(=O)([O-])OCCCC.CCCCn1cc[n+](C)c1 | 1.8 ± 0.11 | 1.77 ± 0.1 | 1.73 ± 0.1 | 1.71 ± 0.1 | 1.68 ± 0.1 | 1.65 ± 0.1
16 | CCCCC [pentane] + CCCCOP(=O)([O-])OCCCC.CCCCn1cc[n+](C)c1 | 4.12 ± 0.25 | 4.05 ± 0.24 | 3.93 ± 0.23 | 3.86 ± 0.23 | 3.79 ± 0.23 | 3.72 ± 0.22
